pIC50: −log10 of the molar value. “And” between values parts separate entries of the source, which are not always exact repeats. Identical values can stand only once.
molecular target: Nonstructural protein 3 (Zika virus, UniProt A0A024AXB9); test: Functional biochemical assay to identify treatments for viral infectious disease that targets Zika NS2B-NS3 protease. Utilizing a direct enzyme activity measurement method, reading the fluorescence intensity is used to characterize the relative potency of inhibitors as IC50.; design: species or system PRVABC59
Sequence (A0A024AXB9 whole entry): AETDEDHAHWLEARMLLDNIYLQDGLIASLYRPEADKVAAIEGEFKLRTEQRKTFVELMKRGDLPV

pIC50	SMILES
< 4.60	Cc1c(C(=O)Nc2cc(C3(C)OCCO3)ccn2)cc(C2CC2)n1C
< 4.60	O=C1OCc2ccc(NC(=O)[C@H]3CCNC34CCCC4)cc21
7.29 and 7.47	O=C(Nc1cc2c(cc1Br)CNC2)c1cc(Cl)cc2[nH]ncc12
< 4.60	O=C(Nc1cc(-c2cccnc2)ccn1)c1nc(C2CC2)co1
< 4.60	Cn1cc(C(F)(F)F)nc1C(=O)Nc1cc(-c2cccnc2)ccn1
< 4.60	COCCNC(=O)[C@H](Nc1cccc([C@H]2CCOC2)c1)c1cc(Cl)cc2[nH]ncc12
6.37	O=C(Nc1ccc2c(c1)CNC2)c1cc(Cl)cc2[nH]c(-c3nc4c(s3)CCC4)nc12
< 4.60	Cn1nc(C(=O)Nc2cc(-c3cccnc3)ccn2)cc1C1CC1
7.06 and 7.24	O=C(Nc1ccc2c(c1)CNC2)c1cc(Cl)cc2[nH]c(-c3ccc(F)cc3O)nc12
< 4.60	CCOC(=O)c1csc([C@H]2CCCN2C(=O)Nc2ccc3c(c2)CNC3)n1
< 4.60	Cc1c(C(=O)Nc2cc(-c3cccnc3)ccn2)cc(C(C)C)n1C
6.70	O=C(NCC(F)F)[C@H](Nc1ccc2c(c1)CNC2)c1cc(F)cc2[nH]ccc12
< 4.90	Cc1c(C(=O)Nc2cc(-c3cccnc3)ccn2)cc(C2CCCCC2)n1C
< 4.60	c1cc([C@@H]2C[C@H]2c2ccc3c(c2)CNC3)c2cn[nH]c2c1
< 4.60	Cc1c(C(=O)Nc2cc(C3CCOCC3)ccc2F)cc(C2CC2)n1C
< 4.60	Cc1c(C(=O)NCc2ccnc(OC3CCOCC3)c2)cc(C2CC2)n1C
4.64	O=C1Cc2c(C(=O)Nc3ccc4c(c3)CNC4)ccnc2N1
< 4.60	Cc1c(C(=O)NCc2cccc(C3COC3)c2)cc(C2CC2)n1C
< 4.60	O=C(Nc1cc([C@H]2CCOC2)ccn1)c1cc(Cl)cc2c1CCC2
< 4.60	O=C(Nc1cc(-c2cccnc2)ccn1)c1csc(C2CC2)n1
< 4.60	O=C(Nc1ccc2c(c1)CNC2)c1cc(C(F)(F)F)c2cn[nH]c2n1
7.24 and 7.43	O=C(NCC(F)F)[C@H](Nc1ccc2c(c1)CNC2)c1cc(F)cc2[nH]ncc12

pIC50	SMILES
< 4.60	O=C1OCc2ccc(NC(=O)[C@H]3CCNC3)cc21
6.00	C=CC[C@H]1NCc2cc(N[C@H](C(=O)NC(C)C)c3cc(Cl)cc4[nH]ncc34)ccc21
< 4.60	CNC(=O)[C@H](Nc1cccc([C@H]2CCOC2)c1)c1cc(C2CC2)n(C)n1
< 4.60	NCc1cc(Cl)cc(C(=O)Nc2cc([C@H]3CCOC3)ccn2)c1
6.86	CC1=C(c2cc(NC(=O)c3cc(Cl)cc4[nH]ncc34)cc3c2CNC3)CCC1=O
< 4.60	Cn1c(C2CC2)cc(C(=O)Nc2cc(-c3cccnc3)ccn2)c1C1CC1
< 4.60	O=C(Nc1cc(-c2cccnc2)ccn1)c1cc(C2CC2)no1
7.19 and 7.39	O=C(Nc1cc2c(c(C3=CC[C@H](O)CC3)c1)CNC2)c1cc(Cl)cc2[nH]ncc12
< 4.60	Cn1nc(C2CC2)cc1C(=O)Nc1cc(-c2cccnc2)ccn1
< 4.60	O=C(Nc1cc(-c2cccnc2)ccn1)c1cnc(C2CC2)s1
5.83	NS(=O)(=O)c1cc(F)cc(C(=O)Nc2ccc3c(c2)CNC3)c1
< 4.60	O=C1Cc2cc(C(=O)Nc3ccc4c(c3)CNC4)c(Cl)cc2N1
6.94	O=C(Nc1ccc2c(c1)CNC2)c1cc(F)cc2c1CCNC2
6.26	O=C(Nc1ccc2c(c1)CNC2)c1cc(Br)cc2c1nc1n2CCCC1
4.77	O=C(Nc1ccc2c(c1)CNC2)c1n[nH]c2ccc(F)cc12
5.45	Fc1cc(CNc2ccc3c(c2)CNC3)c2cn[nH]c2c1
< 4.60	Cn1nc(C(=O)Nc2cc([C@H]3CCOC3)ccn2)cc1C1CC1
< 4.60	Cc1c(C(=O)Nc2cccc(C3CCOCC3)c2)cc(C2CC2)n1C
< 4.60	O=C(Nc1cc(-c2cccnc2)ccn1)c1coc(C2CC2)n1
7.00 and 7.74 and 7.32	N#Cc1cccc(-c2nc3c(C(=O)Nc4ccc5c(c4)CNC5)cc(Cl)cc3[nH]2)c1
7.25 and 7.37	O=C(Nc1ccc2c(c1)CNC2)c1cc(F)cc(-c2cnc(C3CC3)s2)c1
< 4.60	Cn1nc(C(F)(F)F)cc1C(=O)Nc1cc(-c2cccnc2)ccn1

From ChEMBL document CHEMBL5604062, “ASAP - ZIKV NS2B-NS3 protease fluorescence dose response” (2024)
